Assay results reported in patent publication US20020031795A1, “Nitrocoumarins for detecting all micro-organisms” (priority 1998, published 2002).

Assays:
Type in all cases: cell-based
[1] = test system: Citrobacter diversus; assay: Reduction of the indicator by wild Enterobacteriaceae strain (fluorescence); details: 0.17 mmol/l
Protocol: (§1) The E. coli was grown for 24 hours at 35° C. on Columbia agar supplemented with sheep blood. The bacteria were then resuspended in sterile, distilled water and their density was adjusted to 0.5 on the MacFarland scale (i.e. about 10^8 cells/ml). This suspension was then diluted 100-fold in sterile Mueller-Hinton broth (i.e. to a final density of about 10^6 cells/ml).
(§2) Fifty microliters of each nitrocoumarin solution plus 50 μl of bacterial suspension were then added to the wells of a microtiter plate. The plates were incubated at 35° C. and the optical density and fluorescence of each well was read every 30 min for a total of 4 hours. Optical density (690 nm) readings were made using an Anthos 2001 spectrophotometer (Labtech International Limited), and fluorescence (excitation at 365 nm and emission at 440 nm) readings were made on a Biolite F1 2001 fluorometer (Labtech International Limited).
(§3) This experiment was designed to investigate whether or not it would be possible to detect Enterobacteriaceae other than E. coli using 7-nitrocoumarin-3-carboxylic acid. The conditions for this experiment were similar to those described for the first experiment (section A).
(§4) Five wild strains belonging to the species Citrobacter diversus, Enterobacter agglomerans, Hafnia alvei, Morganella morganii and Shigella sonnei were tested

[2] = test system: Shigella sonnei; assay: as above; details: 0.17 mmol/l
Protocol: as §1, §2, §3, §4

[3] = test system: Hafnia alvei; assay: as above; details: 0.17 mmol/l
Protocol: as §1, §2, §3, §4

[4] = test system: Enterobacter agglomerans; assay: as above; details: 0.17 mmol/l
Protocol: as §1, §2, §3, §4

[5] = test system: Moraxella nonliquefaciens (ATCC 19975); assay: Fluorescence after 24 hours, serial dilutions in Trypticase Soy broth
Protocol: (§5) This experiment was performed to test 7-nitrocoumarin-3-carboxylic acid on sixteen (16) different types of microorganism, including one yeast species.
(§6) A mass of 10 mg of the indicator was dissolved in 4 ml of hot, distilled water and this solution was then added to 96 ml of Trypticase Soy broth. The resultant mixture was sterile-filtered.
(§7) All the microorganisms were grown for 24 hours in Trypticase Soy broth at 35° C. Each culture was then diluted 1,000-fold in Trypticase Soy broth and then serial 10-fold dilutions were made in more Trypticase Soy broth until the test aliquot contained no more microbial cells.
(§8) The resultant dilutions ranged from 10^−3 to 10^−13.
(§9) Fifty microliters of each dilution plus 50 μl of Trypticase Soy broth were added to wells of a microtiter plate with or without 7-nitrocoumarin-3-carboxylic acid.
(§10) The plates were read (T zero) and then incubated at 35° C. before being read again after 24 hours. Two different readings were made at each time point:
(§11) of the fluorescence (excitation at 365 nm and emission at 440 nm), using a Biolite F1 2001 fluorometer (Labtech International Limited), for wells containing 7-nitrocoumarin-3-carboxylic acid.

[6] = test system: Brevundimonas vesicularis (ATCC 11426); assay: as above
Protocol: as §5, §6, §7, §8, §9, §10, §11

[7] = test system: Shewanella putrefaciens (ATCC 8071); assay: as above
Protocol: as §5, §6, §7, §8, §9, §10, §11

[8] = test system: Listeria ivanovii (wild strain); assay: as above
Protocol: as §5, §6, §7, §8, §9, §10, §11

[9] = test system: Candida albicans (ATCC 90028); assay: as above; details: for Fluorescence reading: 24 hours
Protocol: as §5, §6
[…] Each culture was then diluted 1,000-fold in Trypticase Soy broth and then serial 10-fold dilutions were made in more Trypticase Soy broth until the test aliquot contained no more microbial cells.
as §8, §9, §10, §11

Molecule `O=C(O)c1cc2ccc([N+](=O)[O-])cc2oc1=O` [7-nitrocoumarin-3-carboxylic acid] has a Fluorescent signal ([1]; 0 min) of 0, a Fluorescent signal ([1]; 30 min) of 3 and a Fluorescent signal ([1]; 60 min) of 3. For the same molecule, the Fluorescent signal ([1]; 90 min) was 34, the Fluorescent signal ([1]; 120 min) was 92 and the Fluorescent signal ([1]; 150 min) was 281. For the same molecule, the Fluorescent signal ([1]; 180 min) was 546, the Fluorescent signal ([1]; 210 min) was 1209 and the Fluorescent signal ([1]; 240 min) was 5393. For the same molecule, the Fluorescent signal ([2]; 0 min) was 0, the Fluorescent signal ([2]; 30 min) was −9 and the Fluorescent signal ([2]; 60 min) was 15. It also gave a Fluorescent signal ([2]; 90 min) of 52, a Fluorescent signal ([2]; 120 min) of 162 and a Fluorescent signal ([2]; 150 min) of 434. It also gave a Fluorescent signal ([2]; 180 min) of 1108, a Fluorescent signal ([2]; 210 min) of 3095 and a Fluorescent signal ([2]; 240 min) of 8567. The Fluorescent signal ([3]; 0 min) was 0, the Fluorescent signal ([3]; 30 min) was −24 and the Fluorescent signal ([3]; 60 min) was −30. For the same molecule, the Fluorescent signal ([3]; 90 min) was 0, the Fluorescent signal ([3]; 120 min) was 40 and the Fluorescent signal ([3]; 150 min) was 122. It also gave a Fluorescent signal ([3]; 180 min) of 260, a Fluorescent signal ([3]; 210 min) of 775 and a Fluorescent signal ([3]; 240 min) of 2048. For the same molecule, the Fluorescent signal ([4]; 0 min) was 0, the Fluorescent signal ([4]; 30 min) was −15 and the Fluorescent signal ([4]; 60 min) was −3. For the same molecule, the Fluorescent signal ([4]; 90 min) was 9, the Fluorescent signal ([4]; 120 min) was 74 and the Fluorescent signal ([4]; 150 min) was 199. The Fluorescent signal ([4]; 180 min) was 501, the Fluorescent signal ([4]; 210 min) was 1246 and the Fluorescent signal ([4]; 240 min) was 4099. The Fluorescence reading ([5]; dilution 10^−3) was 28160, the Fluorescence reading ([5]; dilution 10^−4) was 27889 and the Fluorescence reading ([5]; dilution 10^−5) was 28439. It also gave a Fluorescence reading ([5]; dilution 10^−6) of 27648, a Fluorescence reading ([5]; dilution 10^−7) of 27385 and a Fluorescence reading ([5]; dilution 10^−8) of 27196. For the same molecule, the Fluorescence reading ([5]; dilution 10^−9) was 1974, the Fluorescence reading ([5]; dilution 10^−10) was 2057 and the Fluorescence reading ([5]; dilution 10^−11) was 2002. The Fluorescence reading ([5]; dilution 10^−12) was 1956, the Fluorescence reading ([5]; dilution 10^−13) was 1907 and the Fluorescence reading ([6]; dilution 10^−3) was 2543. The Fluorescence reading ([6]; dilution 10^−4) was 1962, the Fluorescence reading ([6]; dilution 10^−5) was 1861 and the Fluorescence reading ([6]; dilution 10^−6) was 1941. It also gave a Fluorescence reading ([6]; dilution 10^−7) of 1928, a Fluorescence reading ([6]; dilution 10^−8) of 1889 and a Fluorescence reading ([6]; dilution 10^−9) of 1929. It also gave a Fluorescence reading ([6]; dilution 10^−10) of 1910, a Fluorescence reading ([6]; dilution 10^−11) of 1938 and a Fluorescence reading ([6]; dilution 10^−12) of 1919. For the same molecule, the Fluorescence reading ([6]; dilution 10^−13) was 1877, the Fluorescence reading ([7]; dilution 10^−3) was 40277 and the Fluorescence reading ([7]; dilution 10^−4) was 37262. For the same molecule, the Fluorescence reading ([7]; dilution 10^−5) was 34890, the Fluorescence reading ([7]; dilution 10^−6) was 32034 and the Fluorescence reading ([7]; dilution 10^−7) was 31793. It also gave a Fluorescence reading ([7]; dilution 10^−8) of 1911, a Fluorescence reading ([7]; dilution 10^−9) of 1902 and a Fluorescence reading ([7]; dilution 10^−10) of 1972. For the same molecule, the Fluorescence reading ([7]; dilution 10^−11) was 1917, the Fluorescence reading ([7]; dilution 10^−12) was 1935 and the Fluorescence reading ([7]; dilution 10^−13) was 1990. The Fluorescence reading ([8]; dilution 10^−3) was 16246, the Fluorescence reading ([8]; dilution 10^−4) was 44910 and the Fluorescence reading ([8]; dilution 10^−5) was 13185. For the same molecule, the Fluorescence reading ([8]; dilution 10^−6) was 44865, the Fluorescence reading ([8]; dilution 10^−7) was 9251 and the Fluorescence reading ([8]; dilution 10^−8) was 8137. It also gave a Fluorescence reading ([8]; dilution 10^−9) of 44425, a Fluorescence reading ([8]; dilution 10^−10) of 1663 and a Fluorescence reading ([8]; dilution 10^−11) of 1651. The Fluorescence reading ([8]; dilution 10^−12) was 1691, the Fluorescence reading ([8]; dilution 10^−13) was 1682 and the Fluorescence reading ([9]; dilution 10^−3) was 2847. For the same molecule, the Fluorescence reading ([9]; dilution 10^−4) was 2609, the Fluorescence reading ([9]; dilution 10^−5) was 2335 and the Fluorescence reading ([9]; dilution 10^−6) was 2041. For the same molecule, the Fluorescence reading ([9]; dilution 10^−7) was 1693, the Fluorescence reading ([9]; dilution 10^−8) was 1745 and the Fluorescence reading ([9]; dilution 10^−9) was 1693. For the same molecule, the Fluorescence reading ([9]; dilution 10^−10) was 1751, the Fluorescence reading ([9]; dilution 10^−11) was 1666 and the Fluorescence reading ([9]; dilution 10^−12) was 1702. The Fluorescence reading ([9]; dilution 10^−13) was 1666, the “Fluorescent signal compared with bacteria (in words)” value ([9]; RPMI medium, results not presented) was “comparable to that generated by the bacteria” and the “Fluorescent signal compared with bacteria (in words)” value ([9]; Trypticase Soy broth) was “only a faint fluorescent signal”.
